IC50 data for one compound are collected here from publication PMC10517971, “An inverse agonist of orphan receptor GPR61 acts by a G protein-competitive allosteric mechanism” (Nature Communications, 2023).

This assay addresses Cav1.2 (Homo sapiens, UniProt Q13936). Description: cell-based. The source says:
105 hERG, Nav1.5 and Cav1.2 Ion Channel Profiling
106 Ionic curr ents wer e evalu ated in the whole-cell con figuration using the Qube384 automated planar
107 patch clamp platform (Sophion Bioscience A/S, Ballerup, Denmark). […]
113 experiments, the ext ernal solution was composed of (in mM): 137.9 NaCl, 5.3 KCl, 0.49 MgCl2,
115 mOsM. The internal solution contained (in mM ): 27 CF, 112 CsCl, 2 MgCl2, 10 EGTA, 10
116 HEPES, 2 Na2ATP, pH 7.2, 305 mOsM. […]
123 at a rate of 0.05 Hz. Peak hERG current was measured during the ramp. The Cav1.2 current was
124 elicited by a voltage step to 0 mV for 150 ms from a holding potential of -40 mV. Voltage steps
125 were repeated at 0.05 Hz, and Cav1.2 amplitude was measured as the peak current at 0 mV. For
126 Nav1.5 current, from a holding potential of - 80 mV, a 200 ms prepulse to - 120 mV was used to
127 homogenize channel inactivation, followed by a 40 ms step to a test potential of - 15 mV.
128 Membrane potential was further depolarized to +40 mV for 200 ms to completely inactivate the
129 peak Nav1.5 current, followed by a ramp from +40 mV to - 80 mV (-1.2 mV/ms). This voltage
130 pattern was repeated at 0.1 Hz, with peak Nav1.5 defined as the maximum current during the step
131 to - 15 mV. All studies were conducted at 23° C.
132 Compounds were dissol ved and initially diluted in dimethyl sulfoxide (DMSO), with a final
133 dilution in external solution to generate final working concent rations. The final DMSO
134 concentration in all experiments was 0.33% (v/v).
135 For all protocols three vehicle periods each lasting 5 minutes were applied to establish a stable
136 baseline. For the standard protocol this was followed by the addition of increasing concentrations
137 of test compound, with each exposure lasting 5 minutes. For the “extended” protocol following
138 the three- vehi cle additional each well subsequentl y received a single concentration of compound.
139 This application was repeated three times for each well, via a flowthrough addition where the
140 solution was replaced wi th the same compound concentration with each addition. Each exposure
142 Patch clamp data were analyzed using Assay Software 6.4.72 (Sophion Bioscience A/S, Ballerup,
143 Denmark). Current amplitudes were determined by averaging the last 4 currents under each test
144 condition. The percentage inhibition of each compound was determined by taking the ratio of
145 current amplitude measured in the presence of various concentrations of the test compound
146 (ICompound) versus the vehicle control current (IVehicle):
148 A dose-response curve was generat ed and fit to the Hill equation by the Sophion Analyzer software
149 to determine an IC50 value for each compound. The minimum and the slope of the fit were free
150 fitted, with the top being fixed to 100% inhibition. […]

The structures appear in SMILES notation.

Sequence of Cav1.2 (Q13936 whole entry): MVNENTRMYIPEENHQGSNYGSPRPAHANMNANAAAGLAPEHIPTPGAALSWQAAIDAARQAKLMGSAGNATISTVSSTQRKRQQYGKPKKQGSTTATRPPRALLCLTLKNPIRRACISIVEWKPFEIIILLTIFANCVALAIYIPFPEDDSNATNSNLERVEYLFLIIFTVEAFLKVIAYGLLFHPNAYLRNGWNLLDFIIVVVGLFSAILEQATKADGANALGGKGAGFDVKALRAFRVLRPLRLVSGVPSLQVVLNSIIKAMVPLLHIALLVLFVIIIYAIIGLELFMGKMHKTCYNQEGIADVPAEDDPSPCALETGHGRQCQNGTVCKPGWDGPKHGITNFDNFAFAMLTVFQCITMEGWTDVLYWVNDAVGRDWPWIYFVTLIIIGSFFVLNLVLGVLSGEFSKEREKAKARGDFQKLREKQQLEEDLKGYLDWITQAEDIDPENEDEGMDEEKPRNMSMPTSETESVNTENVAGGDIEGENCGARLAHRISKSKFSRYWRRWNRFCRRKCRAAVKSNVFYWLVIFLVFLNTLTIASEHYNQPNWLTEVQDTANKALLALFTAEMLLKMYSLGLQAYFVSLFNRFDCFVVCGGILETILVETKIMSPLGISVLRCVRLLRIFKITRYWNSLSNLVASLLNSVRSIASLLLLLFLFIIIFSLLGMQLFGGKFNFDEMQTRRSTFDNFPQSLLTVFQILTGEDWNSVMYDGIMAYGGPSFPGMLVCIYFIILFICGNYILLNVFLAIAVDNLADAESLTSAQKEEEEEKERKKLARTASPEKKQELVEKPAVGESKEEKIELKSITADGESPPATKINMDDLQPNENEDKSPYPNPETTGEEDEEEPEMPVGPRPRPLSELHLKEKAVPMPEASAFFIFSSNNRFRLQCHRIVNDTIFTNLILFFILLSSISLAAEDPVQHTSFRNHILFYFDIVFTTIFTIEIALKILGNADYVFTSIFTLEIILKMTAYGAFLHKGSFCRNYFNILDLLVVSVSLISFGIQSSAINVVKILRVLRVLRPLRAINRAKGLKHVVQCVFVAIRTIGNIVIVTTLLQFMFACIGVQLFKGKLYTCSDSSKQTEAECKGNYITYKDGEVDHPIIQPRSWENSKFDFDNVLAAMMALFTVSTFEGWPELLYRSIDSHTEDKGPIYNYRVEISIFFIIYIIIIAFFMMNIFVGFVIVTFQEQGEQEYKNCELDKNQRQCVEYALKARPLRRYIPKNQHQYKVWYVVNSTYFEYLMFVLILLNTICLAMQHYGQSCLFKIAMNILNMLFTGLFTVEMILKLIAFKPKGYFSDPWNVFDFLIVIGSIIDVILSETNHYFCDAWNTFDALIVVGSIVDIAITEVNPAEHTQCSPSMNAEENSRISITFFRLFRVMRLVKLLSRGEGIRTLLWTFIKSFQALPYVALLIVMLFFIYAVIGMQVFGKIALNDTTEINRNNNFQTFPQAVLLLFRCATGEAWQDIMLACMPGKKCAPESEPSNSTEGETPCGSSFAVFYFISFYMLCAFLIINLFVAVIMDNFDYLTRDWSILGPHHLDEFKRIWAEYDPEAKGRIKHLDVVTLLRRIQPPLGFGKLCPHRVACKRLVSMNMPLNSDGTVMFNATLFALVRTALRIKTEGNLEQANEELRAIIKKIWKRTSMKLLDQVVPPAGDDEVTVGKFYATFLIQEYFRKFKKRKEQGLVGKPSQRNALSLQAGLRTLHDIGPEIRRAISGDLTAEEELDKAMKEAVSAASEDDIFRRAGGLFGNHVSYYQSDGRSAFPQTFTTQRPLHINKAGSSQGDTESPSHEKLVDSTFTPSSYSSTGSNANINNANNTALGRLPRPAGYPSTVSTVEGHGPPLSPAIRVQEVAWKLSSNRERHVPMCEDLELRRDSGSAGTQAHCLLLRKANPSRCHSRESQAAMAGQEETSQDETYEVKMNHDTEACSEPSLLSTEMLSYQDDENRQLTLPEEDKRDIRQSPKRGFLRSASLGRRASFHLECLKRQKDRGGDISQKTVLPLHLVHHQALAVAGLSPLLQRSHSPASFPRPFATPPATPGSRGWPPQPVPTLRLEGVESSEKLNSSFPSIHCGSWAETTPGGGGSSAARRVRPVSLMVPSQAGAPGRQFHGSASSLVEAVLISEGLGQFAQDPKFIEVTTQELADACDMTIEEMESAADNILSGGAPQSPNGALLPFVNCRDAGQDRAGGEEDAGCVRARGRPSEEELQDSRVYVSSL
Sequence of Cav1.2 (Q08289 whole entry partner): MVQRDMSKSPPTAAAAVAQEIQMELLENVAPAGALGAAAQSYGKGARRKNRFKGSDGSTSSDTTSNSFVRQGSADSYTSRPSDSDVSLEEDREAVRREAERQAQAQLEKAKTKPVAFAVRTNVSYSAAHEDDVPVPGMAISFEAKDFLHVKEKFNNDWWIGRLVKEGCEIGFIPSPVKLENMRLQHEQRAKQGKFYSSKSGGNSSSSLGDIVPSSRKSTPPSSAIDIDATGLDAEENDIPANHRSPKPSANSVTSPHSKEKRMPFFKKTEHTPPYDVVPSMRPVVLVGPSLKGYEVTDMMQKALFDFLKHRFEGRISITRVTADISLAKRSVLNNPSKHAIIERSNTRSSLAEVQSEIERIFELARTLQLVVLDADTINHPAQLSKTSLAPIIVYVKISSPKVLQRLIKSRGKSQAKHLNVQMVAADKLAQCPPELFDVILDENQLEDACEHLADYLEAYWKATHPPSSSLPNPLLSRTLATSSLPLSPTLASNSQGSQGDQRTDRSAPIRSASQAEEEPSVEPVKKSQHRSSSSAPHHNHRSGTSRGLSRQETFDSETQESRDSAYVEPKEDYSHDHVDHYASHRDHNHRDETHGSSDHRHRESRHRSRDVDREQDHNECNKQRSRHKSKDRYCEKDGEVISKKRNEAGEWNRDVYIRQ
Sequence of Cav1.2 (P54289 25-956 partner limits assumed): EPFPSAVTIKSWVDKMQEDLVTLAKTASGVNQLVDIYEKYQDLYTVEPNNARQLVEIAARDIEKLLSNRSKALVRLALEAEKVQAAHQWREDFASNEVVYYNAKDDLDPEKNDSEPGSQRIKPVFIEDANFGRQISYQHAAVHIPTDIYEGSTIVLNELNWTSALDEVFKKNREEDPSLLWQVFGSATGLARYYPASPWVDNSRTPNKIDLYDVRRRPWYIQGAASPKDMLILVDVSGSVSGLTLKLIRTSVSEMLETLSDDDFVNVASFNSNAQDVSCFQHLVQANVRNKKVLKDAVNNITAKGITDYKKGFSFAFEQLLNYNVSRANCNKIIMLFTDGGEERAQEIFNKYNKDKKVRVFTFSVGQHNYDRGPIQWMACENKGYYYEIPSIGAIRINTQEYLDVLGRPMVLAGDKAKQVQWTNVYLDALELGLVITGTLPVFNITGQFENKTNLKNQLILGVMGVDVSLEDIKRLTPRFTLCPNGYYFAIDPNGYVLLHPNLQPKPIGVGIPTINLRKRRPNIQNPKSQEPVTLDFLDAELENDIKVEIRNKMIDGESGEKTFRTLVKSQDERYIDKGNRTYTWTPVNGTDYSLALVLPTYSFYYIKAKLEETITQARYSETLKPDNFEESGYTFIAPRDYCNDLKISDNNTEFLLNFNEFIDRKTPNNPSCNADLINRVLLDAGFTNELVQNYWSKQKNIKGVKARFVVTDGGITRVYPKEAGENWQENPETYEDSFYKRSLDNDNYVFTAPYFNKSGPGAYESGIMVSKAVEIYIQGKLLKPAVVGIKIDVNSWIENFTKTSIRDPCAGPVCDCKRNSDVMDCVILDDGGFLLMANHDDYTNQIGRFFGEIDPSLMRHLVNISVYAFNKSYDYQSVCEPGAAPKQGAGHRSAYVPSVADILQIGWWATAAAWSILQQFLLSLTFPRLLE
Sequence of Cav1.2 (P54289 957-1103 partner limits assumed): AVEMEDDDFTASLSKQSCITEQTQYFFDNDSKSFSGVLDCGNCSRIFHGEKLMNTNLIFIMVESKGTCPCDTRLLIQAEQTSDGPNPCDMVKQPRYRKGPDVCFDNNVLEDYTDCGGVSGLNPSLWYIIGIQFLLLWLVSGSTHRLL

Take `CCOc1cc(C)nc(N(CCOC)S(=O)(=O)c2ccc(NCc3c(F)cncc3F)nc2OC)n1` [Compound 1]: the IC50 by setting is: (IC50 (nM), Calcium Channel Cav1 (so in the source), standard protocol) 44800 nM; (Ion Channel Extended Protocol IC50 (nM), Period 1st, Cav1.2, extended protocol, 1st period) 21100 nM; (Ion Channel Extended Protocol IC50 (nM), Period 2nd, Cav1.2, extended protocol, 2nd period) 10700 nM; (Ion Channel Extended Protocol IC50 (nM), Period 3rd, Cav1.2, extended protocol, 3rd period) 5930 nM.

In general, IC50 refers to the concentration that gives 50% inhibition.
